# From patent publication US20070141568A1, “Method for determining the presence of one or more ligands in a sample” (BioDetection Systems B.V., priority 2002, published 2007)
# Read-outs that look alike come from different tables or passages of the source.
# How the values were obtained:
# [1] = target: T1, progesterone receptor (PR) (Homo sapiens, UniProt P06401); assay: U2-OS PR cell line (pSG5-hPR, 3×HRE-TATA-Luc reporter); type: cell-based
# T1 construct: expressed in transfected cells; host or cells: human U2-OS cells, stably transfected with pSG5-hPR
# T1 sequence (P06401 1-933): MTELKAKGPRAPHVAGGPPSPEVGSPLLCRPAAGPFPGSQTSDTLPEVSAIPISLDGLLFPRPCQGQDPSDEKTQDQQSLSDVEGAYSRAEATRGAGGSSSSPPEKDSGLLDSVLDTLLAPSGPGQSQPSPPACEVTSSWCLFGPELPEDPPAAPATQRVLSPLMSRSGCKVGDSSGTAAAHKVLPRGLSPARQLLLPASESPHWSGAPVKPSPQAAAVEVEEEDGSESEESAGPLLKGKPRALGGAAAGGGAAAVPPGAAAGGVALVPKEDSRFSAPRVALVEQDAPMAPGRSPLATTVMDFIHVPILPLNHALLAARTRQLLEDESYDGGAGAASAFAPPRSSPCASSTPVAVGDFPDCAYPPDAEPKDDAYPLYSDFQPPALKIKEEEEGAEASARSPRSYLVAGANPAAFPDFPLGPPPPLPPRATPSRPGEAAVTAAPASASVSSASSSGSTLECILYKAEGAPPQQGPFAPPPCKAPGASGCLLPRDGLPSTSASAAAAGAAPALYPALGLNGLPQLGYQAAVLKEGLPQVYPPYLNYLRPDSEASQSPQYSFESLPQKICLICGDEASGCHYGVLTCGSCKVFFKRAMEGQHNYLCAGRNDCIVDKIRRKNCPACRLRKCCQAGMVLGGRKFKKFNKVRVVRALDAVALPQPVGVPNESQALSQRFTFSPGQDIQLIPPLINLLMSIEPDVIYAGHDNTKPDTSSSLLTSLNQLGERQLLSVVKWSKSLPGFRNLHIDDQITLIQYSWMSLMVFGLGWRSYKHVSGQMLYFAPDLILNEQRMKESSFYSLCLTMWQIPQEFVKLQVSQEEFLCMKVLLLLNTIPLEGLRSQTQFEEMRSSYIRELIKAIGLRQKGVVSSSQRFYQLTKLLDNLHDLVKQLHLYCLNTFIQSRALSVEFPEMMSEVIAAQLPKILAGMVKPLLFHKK
# Description: Reporter constructs were made using specific synthetic multimerized hormone responsive elements which were cloned upstream of the synthetic TATA box in the pGL3-TATA-Luc vector. Stable transfected cell lines were made, when necessary co-transfected with a specific receptor-containing expression plasmid pSG5.
# The reporter construct comprises 3 tandem repeats of the hormone responsive element (HRE) oligonucleotide:
# upstream of the minimal adenovirus E1B TATA promotor sequence ([…]) inserted in the multiple cloning site of the luciferase reporter construct pGL3 (as described in Legler et al., supra).
# In order to determine the responsiveness of the U2-OS based steroid reporter cell lines, cells were plated in 96-wells plates and treated for 24 hours with hormone in the culture medium containing 5% charcoal-stripped serum.
# The PR cell line was generated by stably transfecting the human U2-OS cell line with pSG5-hPR and the 3×HRE-TATA-Luc reporter constructs.
# [2] = target: T2, ER-alpha (Homo sapiens, UniProt P03372); assay: U2-OS ER-alpha luciferase reporter cell line; type: cell-based
# T2 construct: expressed in transfected cells
# T2 sequence (P03372 1-595): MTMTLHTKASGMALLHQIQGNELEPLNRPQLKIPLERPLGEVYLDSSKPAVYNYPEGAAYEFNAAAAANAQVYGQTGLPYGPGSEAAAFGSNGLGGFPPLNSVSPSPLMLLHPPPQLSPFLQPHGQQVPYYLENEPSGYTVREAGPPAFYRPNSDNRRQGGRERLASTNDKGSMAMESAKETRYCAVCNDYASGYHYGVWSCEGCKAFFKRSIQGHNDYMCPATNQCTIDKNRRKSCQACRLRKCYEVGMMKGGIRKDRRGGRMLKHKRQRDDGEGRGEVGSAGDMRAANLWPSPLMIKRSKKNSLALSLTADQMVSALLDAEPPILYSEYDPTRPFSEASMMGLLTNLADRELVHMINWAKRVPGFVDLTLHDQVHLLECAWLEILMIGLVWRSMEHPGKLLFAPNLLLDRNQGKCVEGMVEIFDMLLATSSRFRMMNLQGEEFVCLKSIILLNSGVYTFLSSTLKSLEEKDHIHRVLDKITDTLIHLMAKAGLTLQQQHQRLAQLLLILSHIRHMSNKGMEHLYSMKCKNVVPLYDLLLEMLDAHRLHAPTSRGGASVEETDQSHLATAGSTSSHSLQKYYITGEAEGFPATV
SMILES,EC50 [1],EC50 [2],also measured
"C[C@]12CCC(=O)C[C@@H]1CC[C@@H]1[C@@H]2CC[C@]2(C)[C@@H](O)CC[C@@H]12 [dihydro-testosterone, 5α-dihydro-testosterone]",3.98 µM,,
C[C@]12CCC(=O)C=C1CC[C@@H]1[C@@H]2CC[C@]2(C)C(=O)CC[C@@H]12 [androstenedione],,> 10 µM,
C[C@@H]1C[C@H]2[C@@H]3CCC4=CC(=O)C=C[C@]4(C)[C@@]3(F)[C@@H](O)C[C@]2(C)[C@@]1(O)C(=O)CO [Dexamethasone],,,"EC50 ([1]; logEC50, U2-OS reporter cell line, 24 hours with hormone, 5% charcoal-stripped serum, read-out: potency (logEC50) PR (converted)): > 10 µM"
C[C@]1(O)CC[C@H]2[C@@H]3CCC4=CC(=O)CCC4=C3C=C[C@@]21C [R1881],,> 10 µM,
C[C@]12CC[C@H](O)CC1=CC[C@@H]1[C@@H]2CC[C@]2(C)C(=O)CC[C@@H]12 [DHEA],,,"potency (logEC50) PR ([1]; logEC50, U2-OS reporter cell line, 24 hours with hormone, 5% charcoal-stripped serum): >−5.0"
C[C@]12CC[C@H]3[C@@H](CCC4=CC(=O)CC[C@@H]43)[C@@H]1CC[C@@H]2O [Nandrolone],0.00501 µM,0.0398 µM,
C[C@]12CC[C@H]3[C@@H](CCC4=CC(=O)CC[C@@]43C)[C@@H]1CC[C@@H]2O [testosterone],7.94 µM,,
